Peptide text beside a SMILES is read from it. * marks the point of attachment. Cbz = O=C(OCc1ccccc1)*
How the values were obtained:
[1] = tested on: sumoylated TFAP2A in BT549 cells; experiment: Sumoylation of TFAP2A in BT549 cells with peroxide / MG-132; assay type: cell-based, human
Procedure: FIG. 15A-15B. Sumoylated TFAP2A in Basal Cells Induced with Peroxide. Sumoylation of TFAP2A was analyzed in the basal cell line BT549 with and without treatment with peroxide. FIG. 15A. BT549 cells co-transfected with vectors for TFAP2A and either SUMO-1, -2 or -3 and treated without or with peroxide, as indicated. […] Experiment in A was performed in the absence of the proteasome inhibitor MG-132. FIG. 15B. Similar experiments performed with MG-132 treatment either without or with peroxide.
Sumoylation in vitro was done using SUMOlink™ SUMO-1 Kit and SUMOlink™ SUMO-2/3 Kit (Carlsbad). SUMO plasmids and pcDNA3.1-TFAP2A or K10R mutant were used for in vitro protein production. MCF-7 were transfected for 48 hours with […] SUMO expressing plasmids (Feng et al., 2013) that were kindly provided by Dr Xiaolu Yang (University of Pennsylvania). As indicated in some experiments, the proteasome inhibitor MG132 was added as described (Chu and Yang, 2011).

[2] = tested on: FREM2 and RET expression; experiment: Estrogen responsiveness of FREM2 expression, Tamoxifen treatment; assay type: cell-based; conditions: FIG. 11E

**Q.** `CC(C)C[C@@H](C=O)NC(=O)[C@H](CC(C)C)NC(=O)[C@H](CC(C)C)NC(=O)OCc1ccccc1` [MG-132] (Cbz-Leu-Leu-Leu-aldehyde) was tested. Which “identification of the sumoylated forms of TFAP2A” value ([1]; BT549 cells, MG-132 treatment without or with peroxide, FIG. 15B) did it give?
**A.** Its value is “enhanced identification”.

**Q.** How did the FREM2 expression [2] turn out when `CC/C(=C(\c1ccccc1)c1ccc(OCCN(C)C)cc1)c1ccccc1` [Tamoxifen] was run?
**A.** The FREM2 expression was “not estrogen responsive”.

**Q.** What about the RET expression [2] of the same compound?
**A.** Its RET expression is “appropriately repressed”.

**Q.** With `OO` [peroxide] as the compound, how does the “sumoylated TFAP2A” value ([1]; BT549 cells co-transfected with TFAP2A and SUMO-1, -2 or -3, with vs without peroxide, FIG. 15A) read?
**A.** The value was “Induction”.
